Source: publication PMC6001238, “Iterative Chemical Engineering of Vancomycin Leads to Novel Vancomycin Analogs With a High in Vitro Therapeutic Index” (Frontiers in Microbiology, 2018)
Values after ≈ are worked out from the molar mass of the structure shown.

How the values were obtained:
MRSA KS6 = experiment: MIC, broth microdilution, MRSA KS6; format: cell-based, Staphylococcus aureus; conditions: for MIC-fold improvement vs. vancomycin: MRSA KS6, ratio of MIC of vancomycin and MIC of analogue; for MIC: Staphylococcus aureus MRSA KS6, read-out: MIC
In short: (§1)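 MIC values come from broth microdilution run to CLSI susceptibility-testing standards. Ultrapure water and uninoculated broth served as controls. In one series, vancomycin at a final 10 μM was co-dosed with the analogue or comparator antibiotic.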

[1] = tested on: S. aureus VSSA (ATCC 6538); experiment: MIC, broth microdilution, vancomycin-sensitive S. aureus (VSSA/MSSA, ATCC 6538); format: cell-based, Staphylococcus aureus; conditions: for MIC: Staphylococcus aureus VSSA, read-out: MIC; for MIC-fold improvement vs. vancomycin: VSSA, ratio of MIC of vancomycin and MIC of analogue
In short: as §1

MRSA KS1 = experiment: MIC, broth microdilution, MRSA KS1; format: cell-based, Staphylococcus aureus; conditions: for MIC-fold improvement vs. vancomycin: MRSA KS1, ratio of MIC of vancomycin and MIC of analogue; for MIC: Staphylococcus aureus MRSA KS1, read-out: MIC
In short: as §1

E. faecalis VRE 6 = experiment: MIC, broth microdilution, vancomycin-resistant E. faecalis VRE 6 (VanA); format: cell-based, Enterococcus faecalis; conditions: for MIC: Enterococcus faecalis VRE 6 (vancomycin-resistant), read-out: MIC; for MIC-fold improvement vs. vancomycin: VRE 6, ratio of MIC of vancomycin and MIC of analogue
In short: as §1

E. faecalis VRE 53 = experiment: MIC, broth microdilution, vancomycin-resistant E. faecalis VRE 53 (VanA); format: cell-based, Enterococcus faecalis; conditions: for MIC: Enterococcus faecalis VRE 53 (vancomycin-resistant), read-out: MIC; for MIC-fold improvement vs. vancomycin: VRE 53, ratio of MIC of vancomycin and MIC of analogue
In short: as §1

S. aureus VRSA = experiment: MIC, broth microdilution, vancomycin-resistant S. aureus (VRSA); format: cell-based, Staphylococcus aureus; conditions: for MIC: Staphylococcus aureus VRSA, read-out: MIC; for MIC-fold improvement vs. vancomycin: VRSA, ratio of MIC of vancomycin and MIC of analogue
In short: as §1

E. faecalis VSE 1 = experiment: MIC, broth microdilution, vancomycin-sensitive E. faecalis (VSE 1); format: cell-based, Enterococcus faecalis; conditions: for MIC: Enterococcus faecalis VSE 1 (vancomycin-sensitive), read-out: MIC; for MIC-fold improvement vs. vancomycin: VSE 1, ratio of MIC of vancomycin and MIC of analogue
In short: as §1

[2] = tested on: Murine leukemia (L1210) cells; experiment: Cytostatic activity, L1210 cell proliferation; format: cell-based; conditions: mean ± SD of three experiments; highest concentration tested 250 µM; 2 days; read-out: Toxicity (IC50) L1210
In short: (§2)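 Coulter counter cell counts after 37°C culture with compound; IC50 = concentration giving 50% growth inhibition vs negative control. Incubation: L1210 2 d, CEM 3 d, HeLa 4 d. Suspension density before mixing with an equal volume of dilution: 300,000–500,000 cells/mL.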

E. faecalis VRE 37 = experiment: MIC, broth microdilution, vancomycin-resistant E. faecalis VRE 37 (VanA); format: cell-based, Enterococcus faecalis; conditions: for MIC: Enterococcus faecalis VRE 37 (vancomycin-resistant), read-out: MIC; for MIC-fold improvement vs. vancomycin: VRE 37, ratio of MIC of vancomycin and MIC of analogue
In short: as §1

[3] = tested on: L1210, CEM and HeLa cell lines; experiment: Cytostatic activity, average or summary over L1210, CEM and HeLa; format: cell-based; conditions: average of L1210, CEM and HeLa; read-out: Toxicity (IC50) Average
In short: as §2

E. faecalis VRE 29 = experiment: MIC, broth microdilution, vancomycin-resistant E. faecalis VRE 29 (VanA); format: cell-based, Enterococcus faecalis; conditions: for MIC: Enterococcus faecalis VRE 29 (vancomycin-resistant), read-out: MIC; for MIC-fold improvement vs. vancomycin: VRE 29, ratio of MIC of vancomycin and MIC of analogue
In short: as §1

MRSA KS2 = experiment: MIC, broth microdilution, MRSA KS2; format: cell-based, Staphylococcus aureus; conditions: for MIC-fold improvement vs. vancomycin: MRSA KS2, ratio of MIC of vancomycin and MIC of analogue; for MIC: Staphylococcus aureus MRSA KS2, read-out: MIC
In short: as §1

MRSA KS89 = experiment: MIC, broth microdilution, MRSA KS89; format: cell-based, Staphylococcus aureus; conditions: for MIC-fold improvement vs. vancomycin: MRSA KS8, ratio of MIC of vancomycin and MIC of analogue; for MIC: Staphylococcus aureus MRSA KS8, read-out: MIC
In short: as §1

S. aureus VISA/HIP5827 = experiment: MIC, broth microdilution, vancomycin-intermediate S. aureus VISA HIP5827; format: cell-based, Staphylococcus aureus; conditions: for MIC: Staphylococcus aureus VISA/HIP5827, read-out: MIC; for MIC-fold improvement vs. vancomycin: VISA/HIP5827, ratio of MIC of vancomycin and MIC of analogue
In short: as §1

[4] = tested on: human T-lymphocyte (CEM) cells; experiment: Cytostatic activity, CEM cell proliferation; format: cell-based; conditions: mean ± SD of three experiments; highest concentration tested 250 µM; 3 days; read-out: Toxicity (IC50) CEM
In short: as §2

[5] = tested on: human cervix carcinoma (HeLa) cells; experiment: Cytostatic activity, HeLa cell proliferation; format: cell-based; conditions: mean ± SD of three experiments; highest concentration tested 250 µM; 4 days; read-out: Toxicity (IC50) HeLa
In short: as §2

Row | Structure (SMILES) | MIC-fold improvement vs. vancomycin (MRSA KS6) | MIC (MRSA KS6) | MIC [1] | MIC-fold improvement vs. vancomycin [1] | MIC-fold improvement vs. vancomycin (MRSA KS1) | MIC (MRSA KS1) | MIC (E. faecalis VRE 6) | MIC-fold improvement vs. vancomycin (E. faecalis VRE 6) | MIC (E. faecalis VRE 53) | MIC-fold improvement vs. vancomycin (E. faecalis VRE 53) | MIC (S. aureus VRSA) | MIC-fold improvement vs. vancomycin (S. aureus VRSA) | MIC (E. faecalis VSE 1) | MIC-fold improvement vs. vancomycin (E. faecalis VSE 1) | IC50 [2] | MIC (E. faecalis VRE 37) | IC50 [3] | MIC (E. faecalis VRE 29) | MIC-fold improvement vs. vancomycin (E. faecalis VRE 29) | MIC-fold improvement vs. vancomycin (MRSA KS2) | other results
1 | CN[C@H](CC(C)C)C(=O)N[C@H]1C(=O)N[C@@H](CC(N)=O)C(=O)N[C@H]2C(=O)N[C@H]3C(=O)N[C@H](C(=O)N[C@H](C(=O)NCC(=O)Nc4cccc5ccccc45)c4cc(O)cc(O)c4-c4cc3ccc4O)[C@H](O)c3ccc(c(Cl)c3)Oc3cc2cc(c3O[C@@H]2O[C@H](CO)[C@@H](O)[C@H](O)[C@H]2O[C@H]2C[C@](C)(N)[C@H](O)[C@H](C)O2)Oc2ccc(cc2Cl)[C@H]1O [Vanc-41] | 2 | 0.39 µM (≈ 0.636 µg/mL) | 0.78 µM (≈ 1.27 µg/mL) | 1 | 2 | 0.39 µM (≈ 0.636 µg/mL) | 6.25 µM (≈ 10.2 µg/mL) | 32 | 25 µM (≈ 40.8 µg/mL) | 16 | 6.25 µM (≈ 10.2 µg/mL) | 16 | 0.39 µM (≈ 0.636 µg/mL) | 4 | > 250 µM | 12.5 µM (≈ 20.4 µg/mL) | > 250 µM | 12.5 µM (≈ 20.4 µg/mL) | 32 | 2 | MIC (MRSA KS2): 0.39 µM (≈ 0.636 µg/mL); MIC-fold improvement vs. vancomycin (MRSA KS89): 2; MIC (MRSA KS89): 0.39 µM (≈ 0.636 µg/mL); MIC (S. aureus VISA/HIP5827): 1.56 µM (≈ 2.55 µg/mL); MIC-fold improvement vs. vancomycin (S. aureus VISA/HIP5827): 4; IC50 [4]: > 250 µM; IC50 [5]: > 250 µM
2 | CN[C@H](CC(C)C)C(=O)N[C@H]1C(=O)N[C@@H](CC(N)=O)C(=O)N[C@H]2C(=O)N[C@H]3C(=O)N[C@H](C(=O)N[C@H](C(=O)NCC(=O)Nc4ccc(Cl)cn4)c4cc(O)cc(O)c4-c4cc3ccc4O)[C@H](O)c3ccc(c(Cl)c3)Oc3cc2cc(c3O[C@@H]2O[C@H](CO)[C@@H](O)[C@H](O)[C@H]2O[C@H]2C[C@](C)(N)[C@H](O)[C@H](C)O2)Oc2ccc(cc2Cl)[C@H]1O [Vanc-44] | 0.25 | 3.13 µM (≈ 5.06 µg/mL) | 0.78 µM (≈ 1.26 µg/mL) | 1 | 1 | 0.78 µM (≈ 1.26 µg/mL) | 12.5 µM (≈ 20.2 µg/mL) | 16 | 50 µM (≈ 80.8 µg/mL) | 8 | 12.5 µM (≈ 20.2 µg/mL) | 8 | 0.78 µM (≈ 1.26 µg/mL) | 2 | ≥ 250 µM | 25 µM (≈ 40.4 µg/mL) | 203 µM | 25 µM (≈ 40.4 µg/mL) | 16 | 1 | MIC-fold improvement vs. vancomycin (E. faecalis VRE 37): 16; MIC (MRSA KS2): 0.78 µM (≈ 1.26 µg/mL); MIC-fold improvement vs. vancomycin (MRSA KS89): 1; MIC (MRSA KS89): 0.78 µM (≈ 1.26 µg/mL); MIC (S. aureus VISA/HIP5827): 1.56 µM (≈ 2.52 µg/mL); MIC-fold improvement vs. vancomycin (S. aureus VISA/HIP5827): 4; IC50 [4]: ≥ 250 µM; IC50 [5]: 108 ± 38 µM
3 | CNC(CC(C)C)C(=O)NC1C(=O)NC(CC(N)=O)C(=O)NC2C(=O)NC3C(=O)NC(C(=O)NC(C(=O)NCCCNC(=O)c4cc5cc(F)ccc5[nH]4)c4cc(O)cc(O)c4-c4cc3ccc4O)C(O)c3ccc(c(Cl)c3)Oc3cc2cc(c3OC2OC(CO)C(O)C(O)C2OC2CC(C)(N)C(O)C(C)O2)Oc2ccc(cc2Cl)C1O (stereo not drawn) [Vanc-45] | 0.25 | 3.13 µM (≈ 5.22 µg/mL) | 0.39 µM (≈ 0.65 µg/mL) | 2 | 2 | 0.39 µM (≈ 0.65 µg/mL) | 3.13 µM (≈ 5.22 µg/mL) | 64 | 25 µM (≈ 41.7 µg/mL) | 16 | 1.56 µM (≈ 2.6 µg/mL) | 64 | 0.39 µM (≈ 0.65 µg/mL) | 4 | > 250 µM | 12.5 µM (≈ 20.8 µg/mL) | > 250 µM | 12.5 µM (≈ 20.8 µg/mL) | 32 | 2 | MIC (MRSA KS2): 0.39 µM (≈ 0.65 µg/mL); MIC-fold improvement vs. vancomycin (MRSA KS89): 2; MIC (MRSA KS89): 0.39 µM (≈ 0.65 µg/mL); MIC (S. aureus VISA/HIP5827): 1.56 µM (≈ 2.6 µg/mL); MIC-fold improvement vs. vancomycin (S. aureus VISA/HIP5827): 4; IC50 [4]: > 250 µM; IC50 [5]: > 250 µM
4 | CNC(CC(C)C)C(=O)NC1C(=O)NC(CC(N)=O)C(=O)NC2C(=O)NC3C(=O)NC(C(=O)NC(C(=O)NCCNC(=O)C4c5ccccc5-c5ccccc54)c4cc(O)cc(O)c4-c4cc3ccc4O)C(O)c3ccc(c(Cl)c3)Oc3cc2cc(c3OC2OC(CO)C(O)C(O)C2OC2CC(C)(N)C(O)C(C)O2)Oc2ccc(cc2Cl)C1O (stereo not drawn) [Vanc-46] | 0.25 | 3.13 µM (≈ 5.27 µg/mL) | 0.78 µM (≈ 1.31 µg/mL) | 1 | 1 | 0.78 µM (≈ 1.31 µg/mL) | 6.25 µM (≈ 10.5 µg/mL) | 32 | 25 µM (≈ 42.1 µg/mL) | 16 | 6.25 µM (≈ 10.5 µg/mL) | 16 | 0.78 µM (≈ 1.31 µg/mL) | 2 | 197 ± 18 µM | 25 µM (≈ 42.1 µg/mL) | 180 µM | 25 µM (≈ 42.1 µg/mL) | 16 | 2 | MIC-fold improvement vs. vancomycin (E. faecalis VRE 37): 16; MIC (MRSA KS2): 0.39 µM (≈ 0.657 µg/mL); MIC-fold improvement vs. vancomycin (MRSA KS89): 2; MIC (MRSA KS89): 0.39 µM (≈ 0.657 µg/mL); MIC (S. aureus VISA/HIP5827): 1.56 µM (≈ 2.63 µg/mL); MIC-fold improvement vs. vancomycin (S. aureus VISA/HIP5827): 4; IC50 [4]: 235 ± 21 µM; IC50 [5]: 108 ± 9 µM
5 | CN[C@H](CC(C)C)C(=O)N[C@H]1C(=O)N[C@@H](CC(N)=O)C(=O)N[C@H]2C(=O)N[C@H]3C(=O)N[C@H](C(=O)N[C@H](C(=O)NCCNC(=O)CC(c4ccccc4)c4ccccc4)c4cc(O)cc(O)c4-c4cc3ccc4O)[C@H](O)c3ccc(c(Cl)c3)Oc3cc2cc(c3O[C@@H]2O[C@H](CO)[C@@H](O)[C@H](O)[C@H]2O[C@H]2C[C@](C)(N)[C@H](O)[C@H](C)O2)Oc2ccc(cc2Cl)[C@H]1O [Vanc-47] | 0.25 | 3.13 µM (≈ 5.32 µg/mL) | 0.78 µM (≈ 1.33 µg/mL) | 1 | 2 | 0.39 µM (≈ 0.663 µg/mL) | 6.25 µM (≈ 10.6 µg/mL) | 32 | 50 µM (≈ 85 µg/mL) | 8 | 3.13 µM (≈ 5.32 µg/mL) | 32 | 0.78 µM (≈ 1.33 µg/mL) | 2 | ≥ 250 µM | 25 µM (≈ 42.5 µg/mL) | 199 µM | 25 µM (≈ 42.5 µg/mL) | 16 | 2 | MIC-fold improvement vs. vancomycin (E. faecalis VRE 37): 16; MIC (MRSA KS2): 0.39 µM (≈ 0.663 µg/mL); MIC-fold improvement vs. vancomycin (MRSA KS89): 2; MIC (MRSA KS89): 0.39 µM (≈ 0.663 µg/mL); MIC (S. aureus VISA/HIP5827): 1.56 µM (≈ 2.65 µg/mL); MIC-fold improvement vs. vancomycin (S. aureus VISA/HIP5827): 4; IC50 [4]: 240 ± 4 µM; IC50 [5]: 106 ± 14 µM
